Values after ≈ are worked out from the molar mass of the structure shown. Read-outs that look alike come from different tables or passages of the source.
Assays:
Assay in all cases: In vitro antibacterial activity, agar dilution
Assay type in all cases: cell-based
[1] = test system: Streptococcus b-hemolyticus; conditions: strain AMCH 88-86, Mueller-Hinton agar, read-out: Minimal Inhibitory Concentration
Method: (§1) The in vitro antibacterial effects of antibiotics LL-E19085α, LL-E19085β, LL-E19085γ, LL-E19085.zeta. and LL-E19085.eta. were determined by standard agar dilution methods against clinical isolates obtained from medical centers representing various geographical areas in the United States. The inoculum of each culture was approximately 1 to 5×10^4 colony forming units applied with a Steers multiple inocula replicator to plates containing the antibiotic in Mueller-Hinton agar. The agar was supplemented with about 5% sheep blood where required for the growth of the organism.

[2] = test system: Streptococcus a-hemolyticus; conditions: strain AMCH 88-84, Mueller-Hinton agar, read-out: Minimal Inhibitory Concentration
Method: as §1

[3] = test system: Enterococcus Grp D; conditions: strain WRVA 88-33, Mueller-Hinton agar, read-out: Minimal Inhibitory Concentration
Method: as §1

[4] = test system: Staphylococcus hemolyticus; conditions: read-out: Minimal Inhibitory Concentration
Method: as §1

[5] = test system: Streptococcus pneumoniae; conditions: read-out: Minimal Inhibitory Concentration
Method: as §1

[6] = test system: Klebsiella pneumoniae; conditions: strain NEMC 87-271, Mueller-Hinton agar, read-out: Minimal Inhibitory Concentration
Method: as §1

[7] = test system: Bacteroides cereus; conditions: read-out: Minimal Inhibitory Concentration
Method: as §1

[8] = test system: Staphylococcus aureus; conditions: read-out: Minimal Inhibitory Concentration
Method: as §1

[9] = test system: Streptococcus faecalis; conditions: Enterococcus faecalis, Mueller-Hinton agar, read-out: Minimal Inhibitory Concentration
Method: as §1

[10] = test system: Escherichia coli
Method: as §1

[11] = test system: Enterococcus; conditions: strain CHBM 88-60, Mueller-Hinton agar, read-out: Minimal Inhibitory Concentration
Method: as §1

[12] = strain AVAH 88-1, Mueller-Hinton agar
[13] = strain AVAH 88-3, Mueller-Hinton agar
[14] = strain CHBB 88-75, Mueller-Hinton agar
[15] = strain CHBM 88-70, Mueller-Hinton agar
[16] = strain TEX 85-2, Mueller-Hinton agar
[17] = ATCC25923, strain ATCC 25923, Mueller-Hinton agar
[18] = ATCC29213, strain ATCC 29213, Mueller-Hinton agar
[19] = strain CMC 83-131, Mueller-Hinton agar
[20] = strain IVES 542, Mueller-Hinton agar
[21] = strain K82-26, Mueller-Hinton agar
[22] = strain NEMC 87-69, Mueller-Hinton agar
[23] = strain ROSE (MP), Mueller-Hinton agar
[24] = strain VGH 84-47, Mueller-Hinton agar
[25] = ATCC25922, strain ATCC 25922, Mueller-Hinton agar, read-out: Minimal Inhibitory Concentration
[26] = ATCC35218, strain ATCC 35218, Mueller-Hinton agar, read-out: Minimal Inhibitory Concentration
[27] = read-out: Minimal Inhibitory Concentration, strain D21, Mueller-Hinton agar
[28] = strain D22, Mueller-Hinton agar, read-out: Minimal Inhibitory Concentration

SMILES	MIC [1]	MIC [2]	MIC [3]	MIC [4, 12]	MIC [4, 13]	MIC [5, 14]	MIC [5, 15]	MIC [5, 16]	MIC [6]	MIC [7]	MIC [8, 17]	MIC [8, 18]	MIC [8, 19]	MIC [8, 20]	MIC [8, 21]	MIC [8, 22]	MIC [8, 23]	MIC [8, 24]	MIC ([9]; strain ARUM 87-41)	MIC ([9]; strain CMC 83-120)	further results
COc1cc2oc3c(c(=O)c2cc1OC)C(=O)c1c(ccc2cc4c(c(O)c12)C(=O)N1C(C)(C4)OC(=O)C1(C)CO)C3=O (stereo not drawn) [LL-E19085.eta.]	≤ 0.015 µg/mL	≤ 0.015 µg/mL	≤ 0.015 µg/mL	≤ 0.015 µg/mL	≤ 0.015 µg/mL	≤ 0.015 µg/mL	≤ 0.015 µg/mL	≤ 0.015 µg/mL	≥ 32 µg/mL	≤ 0.015 µg/mL	≤ 0.015 µg/mL	≤ 0.015 µg/mL	0.12 µg/mL (≈ 0.205 µM)	≤ 0.015 µg/mL	≤ 0.015 µg/mL	≤ 0.015 µg/mL	≤ 0.015 µg/mL	≤ 0.015 µg/mL	≤ 0.015 µg/mL	≤ 0.015 µg/mL	MIC ([9]; strain VCH 84-69): ≤ 0.015 µg/mL; MIC ([9]; strain VCI 85-30): ≤ 0.015 µg/mL; MIC [10, 25]: > 32 µg/mL; MIC [10, 26]: > 32 µg/mL; MIC [10, 27]: ≥ 32 µg/mL; MIC [10, 28]: 2 µg/mL (≈ 3.42 µM); MIC [11]: ≤ 0.015 µg/mL
COc1cc2oc3c(c(=O)c2cc1OC)C(=O)c1c(ccc2cc4c(c(O)c12)C(=O)N1C(C)(C4)OC(=O)C1(C)COC(C)=O)C3=O (stereo not drawn) [LL-E19085γ]	≤ 0.008 µg/mL	≤ 0.008 µg/mL	0.5 µg/mL (≈ 0.797 µM)	8 µg/mL (≈ 12.7 µM)	0.5 µg/mL (≈ 0.797 µM)	≤ 0.008 µg/mL	≤ 0.008 µg/mL	≤ 0.008 µg/mL	≥ 16 µg/mL	0.5 µg/mL (≈ 0.797 µM)	≥ 0.008 µg/mL	1 µg/mL (≈ 1.59 µM)	16 µg/mL (≈ 25.5 µM)	8 µg/mL (≈ 12.7 µM)	≤ 0.008 µg/mL	4 µg/mL (≈ 6.37 µM)	1 µg/mL (≈ 1.59 µM)	1 µg/mL (≈ 1.59 µM)	0.5 µg/mL (≈ 0.797 µM)	1 µg/mL (≈ 1.59 µM)	MIC ([9]; strain VCH 84-69): 0.03 µg/mL (≈ 0.0478 µM); MIC ([9]; strain VCI 85-30): 0.06 µg/mL (≈ 0.0956 µM); MIC [10, 25]: > 16 µg/mL; MIC [10, 26]: > 16 µg/mL; MIC [10, 27]: ≥ 16 µg/mL; MIC [10, 28]: 16 µg/mL (≈ 25.5 µM); MIC [11]: 0.5 µg/mL (≈ 0.797 µM)
